Experimental data published in patent US12371419B2, “Aminopyrimidine/pyrazine derivatives as CTPS1 inhibitors” (Step Pharma S.A.S., priority 2018, dated 2025).

System: Human CTPS1 versus CTPS2
Experiment: RapidFire/MS-based enzyme selectivity assay, human CTPS1 versus CTPS2
Format: biochemical
Details: calculated from RF/MS IC50 values for human CTPS1 and CTPS2
Experimental: Human CTPS1 versus CTPS2 Selectivity Assessment by RapidFire/MS Analysis.
The enzyme inhibitory activities against each target isoform of interest may be determined for the compounds of the invention using an optimised RapidFire high-throughput mass spectrometry (RF/MS) assay format. RF/MS assays for both human CTPS1 and CTPS2 may be performed in assay buffer consisting of 50 mM HEPES (Merck), 20 mM MgCl2, 5 mM KCl, 1 mM DTT, 0.01% Tween-20, pH to 8.0 accordingly. Human full-length active C-terminal FLAG-His-tag CTPS1 (UniProtKB-P17812, CTPS[1-591]-[…]) may be obtained from Proteros biostructures GmbH. Human full length active C-terminal FLAG-His-Avi tagged CTPS2 (UniProtKB-Q9NRF8, CTPS2 [1-586]-[…]) may be obtained from Harker Bio.
Human CTPS (1 or 2) protein may be prepared in 1× assay buffer to the final working protein concentration required for the reaction. A 2 uL volume per well of 2×CTPS (1 or 2) protein may be mixed with 40 nL of compound using acoustic (ECHO) delivery and incubated for 10 minutes at 25° C. Each isoform enzymatic reaction may be subsequently initiated by addition of 2 uL per well of a 2× substrate mix in assay buffer. For hCTPS1: ATP (0.3 mM), UTP (0.2 mM), GTP (0.07 mM) and L-glutamine (0.1 mM). For hCTPS2: ATP (0.1 mM), UTP (0.04 mM), GTP (0.03 mM) and L-glutamine (0.1 mM). Each mixture may be incubated for an appropriate amount of time per isoform within the determined linear phase of the reaction at 25° C. A 60 uL volume of stop solution (1% formic acid with 0.5 uM ^13C9-^15N3-CTP in H20) may be added and the plate immediately heat-sealed and centrifuged for 10 minutes at 4,000 rpm. Following centrifugation, plates may be loaded onto the Agilent RapidFire microfluidic solid phase extraction system coupled to an API4000 triple quadrupole mass spectrometer (RF/MS) for analysis.
In all cases, the enzyme converts UTP to CTP. Highly specific and sensitive multiple reaction monitoring (MRM) MS methods may be optimised for the detection of the enzymatic reaction product, CTP, and the stable isotope labelled product standard ^13C9-^15N3-CTP. Readout for data analysis may be calculated as the ratio between the peak area of the product CTP and the internal standard ^13C9-^15N3-CTP. For data reporting, the following equation may be used: […]
For each screening plate, the means of the negative (DMSO) and positive control values were used for the calculation of the respective assay window (S/B) and Z′ values. The median of the respective control values was used for calculation of percent inhibition according to the following equation: […]
Percentage inhibition was then plotted against compound concentration, and the 50% inhibitory concentration (IC50) was determined from the resultant concentration-response curve.
Fold selectivity between CTPS1 and CTPS2 was subsequently calculated according to the following equation: […]

Selectivity (fold selectivity between CTPS1 and CTPS2)	SMILES
+++ (>60 fold (+++))	CCOc1cncc(-c2ccc(NC(=O)C(F)(CC)c3cncc(NS(=O)(=O)C4CC4)n3)nc2)n1 (single isomer, unassigned) [P206, 2-(6-(cyclopropanesulfonamido)pyrazin-2-yl)-N-(5-(6-ethoxypyrazin-2-yl)pyridin-2-yl)-2-fluorobutanamide]
+ (2-30 fold (+))	CCOc1cncc(-c2ccc(NC(=O)C(F)(CC)c3cncc(NS(=O)(=O)C4CC4)n3)nc2)n1 (single isomer, unassigned) [P207, 2-(6-(cyclopropanesulfonamido)pyrazin-2-yl)-N-(5-(6-ethoxypyrazin-2-yl)pyridin-2-yl)-2-fluorobutanamide]
+++ (>60 fold (+++))	CCOc1cncc(-c2ccc(NC(=O)C(CCOC)c3ccnc(NS(=O)(=O)C4CC4)n3)nc2)n1 (stereo not drawn) [P145, 2-(2-(cyclopropanesulfonamido)pyrimidin-4-yl)-N-(5-(6-ethoxypyrazin-2-yl)pyridin-2-yl)-4-methoxybutanamide]
+++ (>60 fold (+++))	CCOc1cncc(-c2ccc(NC(=O)C3(c4cncc(NS(=O)(=O)C5CC5)n4)CCOCC3)nc2)n1 [P197]

Continued, compound first:

SMILES	Selectivity (fold selectivity between CTPS1 and CTPS2)
CCOc1cncc(-c2ccc(NC(=O)C(F)(CC)c3ccnc(NS(=O)(=O)C4CC4)n3)nc2)n1 (single isomer, unassigned) [P113, 2-(2-(Cyclopropanesulfonamido)pyrimidin-4-yl)-N-(5-(6-ethoxypyrazin-2-yl)pyridin-2-yl)-2-fluorobutanamide]	+ (2-30 fold (+))
CCOc1cncc(-c2ccc(NC(=O)C(F)(CC)c3ccnc(NS(=O)(=O)C4CC4)n3)nc2)n1 (single isomer, unassigned) [P114, 2-(2-(Cyclopropanesulfonamido)pyrimidin-4-yl)-N-(5-(6-ethoxypyrazin-2-yl)pyridin-2-yl)-2-fluorobutanamide]	+++ (>60 fold (+++))
CCOc1cncc(-c2ccc(NC(=O)C3(c4ccnc(NS(=O)(=O)C5CC5)n4)CCOCC3)nc2)n1 [P115, 4-(2-(Cyclopropanesulfonamido)pyrimidin-4-yl)-N-(5-(6-ethoxypyrazin-2-yl)pyridin-2-yl)tetrahydro-2H-pyran-4-carboxamide]	+++ (>60 fold (+++))
CCOc1cncc(-c2ccc(NC(=O)C3(c4ccnc(NS(=O)(=O)C5CC5)n4)CCCC3)nc2)n1 [P136, 1-(2-(cyclopropanesulfonamido)pyrimidin-4-yl)-N-(5-(6-ethoxypyrazin-2-yl)pyridin-2-yl)cyclopentane-1-carboxamide]	+++ (>60 fold (+++))
CCOc1cncc(-c2ccc(NC(=O)C3(c4ccnc(NS(=O)(=O)C5CC5)n4)CCOCC3)c(F)c2)n1 [P143, 4-(2-(cyclopropanesulfonamido)pyrimidin-4-yl)-N-(4-(6-ethoxypyrazin-2-yl)2-fluorophenyl)tetrahydro-2H-pyran-4-carboxamide]	+++ (>60 fold (+++))
